The values below come from patent US9670231B2, “Fused tricyclic amide compounds as multiple kinase inhibitors” (BEIGENE, LTD., priority 2013, dated 2017).

Holding throughout (type): biochemical
One assay concerns the target B-Raf (V600E) (Homo sapiens (Human), UniProt P15056, V600E). Description: Raf IC50 assay, TR-FRET, B-Raf (V600E). The conditions noted are these: 0.1 mM ATP; read-out: IC50 BRAF-V600E.
The next assay addresses C-Raf (Y340D/Y341D) (Homo sapiens (Human), UniProt P04049, Y340D/Y341D). Put plainly: Raf IC50 assay, TR-FRET, C-Raf (Y340D/Y341D). The conditions noted are these: 0.1 mM ATP. How it is done: Compounds disclosed herein were tested against B-Raf (V600E) (PV3849, from Invitrogen) or C-Raf (Y340D/Y341D) (PV3805, from Invitrogen) in a time-resolved fluorescence energy transfer assay. The assay was carried out in reactions (10 μL) containing 0.0625 nM B-Raf or 0.5 nM C-Raf, 25 mM Tris pH7.4, 10 mM MgCl2, 0.5 mM EGTA, 0.5 mM Na3VO4, 5 mM beta-glycerophosphate, 0.01% Triton X-100, 2.5 mM DTT, 0.1% BSA, 0.1 mM ATP, 13.7 nM GST-tagged MEK1 (Full-length protein with K97R mutation, recombinant protein purified from bacterial expression system) and 0-5 μM compounds disclosed herein (final concentration of 1% DMSO). The enzyme was incubated with the compounds disclosed herein at room temperature for 60 minutes and the reactions were initiated by the addition of ATP and GST-MEK1. After reaction at room temperature for 60 minutes, an equal volume of stop/detection solution was added according to the manufacture's instruction (CisBio Bioassays). The stop/detection solution contained Eu^3+ cryptate-conjugated anti-phospho MEK1/2 (Ser217/221) rabbit polyclonal antibody and d2-conjugated anti-GST mouse monoclonal antibody in buffer containing 25 mM Tris pH7.4, 400 mM KF, 50 mM EDTA, 0.01% BSA and 0.01% Triton X-100. Plates were sealed and incubated at room temperature for 2 hours, and the TR-FRET signals (ratio of fluorescence emission at 665 nm over emission at 620 nm with excitation at 337 nm wavelength) were recorded on a PHERAstar FS plate reader (BMG Labtech). Phosphorylation of MEK1 led to the binding of anti-phospho-MEK1/2 antibody to GST-MEK1 protein that place fluorescent donor (Eu^3+ crypate) in close proximity to the accepter d2 on the anti-GST antibody, thus resulting in a high degree of fluorescence resonance energy transfer from the donor fluorophore (at 620 nm) to the acceptor fluorophore (at 665 nm). […] The IC50 for each compound was derived from fitting the dose-response % inhibition data to the four-parameter logistic model by Graphpad Prism software.

The next assay addresses wild type B-Raf (Homo sapiens (Human), UniProt P15056). Description: WT BRaf IC50 assay, TR-FRET.
In another assay the target is WT EGFR kinase domain (Homo sapiens (Human), UniProt P00533). Put plainly: EGFR enzymatic assay, TR-FRET, WT EGFR.
The target of the next assay is EGFR L858R kinase domain (Homo sapiens (Human), UniProt P00533, L858R). Put plainly: EGFR enzymatic assay, TR-FRET, EGFR L858R.
For assay [1], the target named is EGFR T790M/L858R kinase domain (Homo sapiens (Human), UniProt P00533, L858R/T790M). Description: EGFR enzymatic assay, TR-FRET, EGFR T790M/L858R.
The mark [2] stands for this setting: Km ATP ([…] ATP), read-out: IC50 Braf-WT Km ATP.

Like-named read-outs stand apart in the source and are kept apart here.

Sequence of EGFR L858R kinase domain (P00533 669-1210 L858R): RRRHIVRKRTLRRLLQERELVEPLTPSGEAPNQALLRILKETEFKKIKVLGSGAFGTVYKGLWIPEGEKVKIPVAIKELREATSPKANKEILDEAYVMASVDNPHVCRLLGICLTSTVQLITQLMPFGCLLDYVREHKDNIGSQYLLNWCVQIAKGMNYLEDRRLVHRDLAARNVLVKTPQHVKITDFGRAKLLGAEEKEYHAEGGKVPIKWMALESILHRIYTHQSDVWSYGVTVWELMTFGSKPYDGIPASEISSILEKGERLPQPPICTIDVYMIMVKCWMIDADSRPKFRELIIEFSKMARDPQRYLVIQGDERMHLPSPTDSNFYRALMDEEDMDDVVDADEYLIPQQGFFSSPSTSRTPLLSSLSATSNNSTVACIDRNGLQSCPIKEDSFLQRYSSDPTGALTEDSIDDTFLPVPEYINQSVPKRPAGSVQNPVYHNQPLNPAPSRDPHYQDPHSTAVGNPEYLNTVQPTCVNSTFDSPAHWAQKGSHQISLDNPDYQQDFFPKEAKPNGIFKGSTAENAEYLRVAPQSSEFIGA
Sequence of EGFR T790M/L858R kinase domain (P00533 669-1210 T790M/L858R): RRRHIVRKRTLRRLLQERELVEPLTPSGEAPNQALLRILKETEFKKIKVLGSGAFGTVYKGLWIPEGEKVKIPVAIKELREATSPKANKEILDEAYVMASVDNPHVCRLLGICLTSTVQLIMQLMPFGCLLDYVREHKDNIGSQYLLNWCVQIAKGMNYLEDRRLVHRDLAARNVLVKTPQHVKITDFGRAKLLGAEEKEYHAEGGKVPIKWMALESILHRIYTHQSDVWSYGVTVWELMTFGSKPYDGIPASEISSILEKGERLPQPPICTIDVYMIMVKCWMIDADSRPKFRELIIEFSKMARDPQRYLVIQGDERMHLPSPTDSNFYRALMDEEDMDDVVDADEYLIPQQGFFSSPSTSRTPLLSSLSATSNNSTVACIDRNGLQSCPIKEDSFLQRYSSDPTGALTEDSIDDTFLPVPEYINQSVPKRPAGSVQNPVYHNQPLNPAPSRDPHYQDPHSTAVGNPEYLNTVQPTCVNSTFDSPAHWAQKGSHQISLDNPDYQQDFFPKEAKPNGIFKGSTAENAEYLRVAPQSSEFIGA
Sequence of C-Raf (Y340D/Y341D) (P04049 whole entry Y340D/Y341D): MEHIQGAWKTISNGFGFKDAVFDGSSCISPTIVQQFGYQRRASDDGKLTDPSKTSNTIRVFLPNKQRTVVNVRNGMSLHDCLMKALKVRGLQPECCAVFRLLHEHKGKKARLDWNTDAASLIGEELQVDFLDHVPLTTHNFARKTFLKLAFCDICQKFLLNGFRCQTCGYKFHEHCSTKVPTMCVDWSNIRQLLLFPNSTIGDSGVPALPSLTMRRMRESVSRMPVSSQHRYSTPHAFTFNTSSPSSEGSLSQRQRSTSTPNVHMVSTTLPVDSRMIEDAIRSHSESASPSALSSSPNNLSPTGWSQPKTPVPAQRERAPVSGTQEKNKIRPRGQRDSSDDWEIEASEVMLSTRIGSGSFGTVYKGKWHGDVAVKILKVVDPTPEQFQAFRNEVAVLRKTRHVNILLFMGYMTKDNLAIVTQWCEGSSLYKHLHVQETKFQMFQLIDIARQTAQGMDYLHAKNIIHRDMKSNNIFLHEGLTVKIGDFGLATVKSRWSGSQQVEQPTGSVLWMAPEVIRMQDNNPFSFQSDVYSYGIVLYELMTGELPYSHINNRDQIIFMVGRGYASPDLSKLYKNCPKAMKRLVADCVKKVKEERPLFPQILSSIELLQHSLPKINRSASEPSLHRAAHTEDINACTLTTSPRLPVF
Sequence of wild type B-Raf (P15056 whole entry, the tested form may be a part): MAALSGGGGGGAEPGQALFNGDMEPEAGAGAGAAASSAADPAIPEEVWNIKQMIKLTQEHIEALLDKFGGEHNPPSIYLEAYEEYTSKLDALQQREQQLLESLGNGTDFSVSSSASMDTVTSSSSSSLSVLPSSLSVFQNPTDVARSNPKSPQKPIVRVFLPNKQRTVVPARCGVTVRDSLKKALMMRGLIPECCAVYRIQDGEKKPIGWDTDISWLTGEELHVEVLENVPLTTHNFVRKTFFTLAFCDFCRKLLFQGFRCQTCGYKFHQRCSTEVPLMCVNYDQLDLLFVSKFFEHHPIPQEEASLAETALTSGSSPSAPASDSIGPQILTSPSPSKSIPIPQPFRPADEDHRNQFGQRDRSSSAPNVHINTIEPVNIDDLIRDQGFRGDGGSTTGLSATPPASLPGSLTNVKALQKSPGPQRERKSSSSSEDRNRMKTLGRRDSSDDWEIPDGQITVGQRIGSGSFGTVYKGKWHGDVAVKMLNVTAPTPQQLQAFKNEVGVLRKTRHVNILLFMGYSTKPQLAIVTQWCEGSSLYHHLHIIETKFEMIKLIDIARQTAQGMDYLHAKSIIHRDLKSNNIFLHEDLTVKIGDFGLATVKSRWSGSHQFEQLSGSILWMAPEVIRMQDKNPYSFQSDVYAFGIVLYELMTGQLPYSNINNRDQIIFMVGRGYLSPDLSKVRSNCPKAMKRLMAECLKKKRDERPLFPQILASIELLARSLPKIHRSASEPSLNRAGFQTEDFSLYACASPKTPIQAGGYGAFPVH
Sequence of B-Raf (V600E) (P15056 whole entry V600E): as the sequence (P15056 whole entry, the tested form may be a part) above, with V600E counted along it
Sequence of WT EGFR kinase domain (P00533 669-1210): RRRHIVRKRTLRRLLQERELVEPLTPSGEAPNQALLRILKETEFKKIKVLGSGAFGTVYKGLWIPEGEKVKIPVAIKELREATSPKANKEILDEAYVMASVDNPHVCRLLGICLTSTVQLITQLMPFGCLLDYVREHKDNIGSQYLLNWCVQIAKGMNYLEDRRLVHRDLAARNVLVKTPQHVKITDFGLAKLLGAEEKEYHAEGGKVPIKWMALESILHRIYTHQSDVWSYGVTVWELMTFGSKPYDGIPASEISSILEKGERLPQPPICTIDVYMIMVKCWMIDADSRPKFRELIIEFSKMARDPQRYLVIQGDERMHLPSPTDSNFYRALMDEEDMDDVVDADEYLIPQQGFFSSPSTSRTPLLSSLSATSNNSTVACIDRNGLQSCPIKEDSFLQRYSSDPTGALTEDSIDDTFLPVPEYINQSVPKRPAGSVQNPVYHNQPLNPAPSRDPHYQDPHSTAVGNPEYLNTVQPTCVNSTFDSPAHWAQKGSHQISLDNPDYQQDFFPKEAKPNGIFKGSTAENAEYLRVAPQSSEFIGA

For `CCN1CCN(Cc2ccc(C(=O)N[C@@H]3[C@H]4Oc5ccc(Oc6ccnc7c6COC(=O)N7)cc5[C@@H]34)cc2C(F)(F)F)CC1` [Compound 2.1, 4-((4-ethylpiperazin-1-yl)methyl)-N-((1S,1aS,6bS)-5-((2-oxo-2,4-dihydro-1H-pyrido[2,3-d][1,3]oxazin-5-yl)oxy)-1a,6b-dihydro-1H-cyclopropa[b]benzofuran-1-yl)-3-(trifluoromethyl)benzamide], the IC50 at B-Raf (V600E) is 16 nM; on C-Raf (Y340D/Y341D) it was 2.3 nM; at wild type B-Raf (setting [2]), 15 nM; against WT EGFR kinase domain, 1.8 nM; at EGFR L858R kinase domain it was 0.38 nM; in assay [1] it was 0.25 nM.

In the case of `CN1CCN(c2ccc(C(=O)N[C@@H]3[C@H]4Oc5ccc(Oc6ccnc7c6CCC(=O)N7)cc5[C@@H]34)cc2C(F)(F)F)CC1` [Compound 1.49], the IC50 at B-Raf (V600E) is 9.5 nM; against C-Raf (Y340D/Y341D) it was 2.6 nM; on wild type B-Raf (setting [2]) it was 13 nM; on WT EGFR kinase domain, 5.1 nM; against EGFR L858R kinase domain it was 4.6 nM; in assay [1] it was 38 nM.

With `CN1CCN(Cc2ccc(C(=O)N[C@@H]3[C@H]4Oc5ccc(Oc6ccnc7c6CCC(=O)N7)cc5[C@@H]34)cc2C(F)(F)F)CC1` [Compound 1.3], the IC50 came out at 7.1 nM on B-Raf (V600E); 1.9 nM against C-Raf (Y340D/Y341D); 36 nM against wild type B-Raf (IC50 Braf-WT […] ATP, […] ATP); 14 nM on wild type B-Raf (setting [2]); 0.7 nM against WT EGFR kinase domain; 0.079 nM against EGFR L858R kinase domain. Further, the IC50 in assay [1] came out at 0.088 nM.

In the case of `CN(C)[C@@H]1CCCN(Cc2ccc(C(=O)N[C@@H]3[C@H]4Oc5ccc(Oc6ccnc7c6CCC(=O)N7)cc5[C@@H]34)cc2C(F)(F)F)C1` [Compound 1.31, 4-(((R)-3-(dimethylamino)piperidin-1-yl)methyl)-N-((1S,1aS,6bS)-5-((7-oxo-5,6,7,8-tetrahydro-1,8-naphthyridin-4-yl)oxy)-1a,6b-dihydro-1H-cyclopropa[b]benzofuran-1-yl)-3-(trifluoromethyl)benzamide], the IC50 at B-Raf (V600E) turned out to be 15 nM; on C-Raf (Y340D/Y341D), 0.78 nM; on wild type B-Raf (setting [2]) it was 10 nM; against WT EGFR kinase domain, 0.99 nM; at EGFR L858R kinase domain, 0.44 nM; in assay [1], 1.9 nM.

In the case of `CCN1CCN(Cc2ccc(C(=O)N[C@H]3[C@@H]4Oc5ccc(Oc6ccnc7c6CCC(=O)N7)cc5[C@H]34)cc2C(F)(F)F)CC1` [Compound 1.33, 4-((4-ethylpiperazin-1-yl)methyl)-N-((1R,1aR,6bR)-5-((7-oxo-5,6,7,8-tetrahydro-1,8-naphthyridin-4-yl)oxy)-1a,6b-dihydro-1H-cyclopropa [b]benzofuran-1-yl)-3-(trifluoromethyl)benzamide], the IC50 was 16 nM at B-Raf (V600E); 0.47 nM on C-Raf (Y340D/Y341D); 35 nM at wild type B-Raf (setting [2]); 774 nM on WT EGFR kinase domain; 146 nM on EGFR L858R kinase domain; 293 nM in assay [1].

For the compound `O=C1CCc2c(Oc3ccc4c(c3)[C@H]3[C@H](NC(=O)c5ccc(CN6CCN7CCC[C@@H]7C6)c(C(F)(F)F)c5)[C@H]3O4)ccnc2N1` [Compound 1.12], the IC50 at B-Raf (V600E) amounted to 9 nM; against C-Raf (Y340D/Y341D) it was 1.3 nM; against wild type B-Raf (IC50 Braf-WT […] ATP, […] ATP), 33 nM; on wild type B-Raf (setting [2]), 9.4 nM; against WT EGFR kinase domain, 0.67 nM; on EGFR L858R kinase domain, 0.16 nM. In assay [1], this compound returned an IC50 of 0.21 nM.

As to `CN(C)Cc1ccc(C(=O)N[C@@H]2[C@H]3Oc4ccc(Oc5ccnc6c5CCC(=O)N6)cc4[C@@H]23)cc1C(F)(F)F` [Compound 1.24], the IC50 at B-Raf (V600E) is 14 nM; against C-Raf (Y340D/Y341D), 1.4 nM; at wild type B-Raf (setting [2]) it was 34 nM; against WT EGFR kinase domain, 2.7 nM; against EGFR L858R kinase domain, 1.2 nM; in assay [1], 8.1 nM.

Consider `CCN1CCN(Cc2cc(C(=O)N[C@@H]3[C@H]4Oc5ccc(Oc6ccnc7c6CCC(=O)N7)cc5[C@@H]34)cc(C(F)(F)F)c2)CC1` [Compound 1.5], for which the IC50 on B-Raf (V600E) amounted to 12 nM; against C-Raf (Y340D/Y341D) it was 2.1 nM; against wild type B-Raf (IC50 Braf-WT […] ATP, […] ATP) it was 39 nM; at wild type B-Raf (setting [2]), 15 nM; against WT EGFR kinase domain it was 2.3 nM; at EGFR L858R kinase domain, 1 nM. In assay [1], this compound gave an IC50 of 7.1 nM.

On to `CCN1CCN(Cc2ccc(C(=O)N[C@@H]3[C@H]4Oc5ccc(Oc6ccnc7c6CCC(=O)N7)cc5[C@@H]34)cc2C(F)(F)F)CC1` [Compound 1.1, 4-((4-ethylpiperazin-1-yl)methyl)-N-((1S,1aS,6bS)-5-((7-oxo-5,6,7,8-tetrahydro-1,8-naphthyridin-4-yl)oxy)-1a,6b-dihydro-1H-cyclopropa[b]benzofuran-1-yl)-3-(trifluoromethyl)benzamide], for which the IC50 at B-Raf (V600E) is 5.3 nM; at C-Raf (Y340D/Y341D), 0.94 nM; on wild type B-Raf (IC50 Braf-WT […] ATP, […] ATP) it was 27 nM; on wild type B-Raf (setting [2]), 9.5 nM; against WT EGFR kinase domain it was 0.5 nM; against EGFR L858R kinase domain it was 0.11 nM. In addition, in assay [1], half-maximal inhibition (IC50) was put at 0.1 nM.

Take `CCN1CCN(Cc2ccc(C(=O)N[C@@H]3[C@H]4Oc5ccc(Oc6ccnc7c6CCC(=O)N7)cc5[C@@H]34)cc2F)CC1` [Compound 1.4]: the half-inhibitory concentration (IC50) on B-Raf (V600E) was determined as 8.1 nM; against C-Raf (Y340D/Y341D), 1.5 nM; against wild type B-Raf (IC50 Braf-WT […] ATP, […] ATP), 31 nM; on wild type B-Raf (setting [2]), 7.9 nM; against WT EGFR kinase domain it was 1.4 nM; against EGFR L858R kinase domain, 0.46 nM. In assay [1], this compound came in with an IC50 of 2.3 nM.

Turning to `CN(C)[C@H]1CCCN(c2ccc(C(=O)N[C@@H]3[C@H]4Oc5ccc(Oc6ccnc7c6CCC(=O)N7)cc5[C@@H]34)cc2C(F)(F)F)C1` [Compound 1.47, 4-((S)-3-(dimethylamino)piperidin-1-yl)-N-((1S,1aS,6bS)-5-((7-oxo-5,6,7,8-tetrahydro-1,8-naphthyridin-4-yl)oxy)-1a,6b-dihydro-1H-cyclopropa[b]benzofuran-1-yl)-3-(trifluoromethyl)benzamide], the IC50 at B-Raf (V600E) came to 10 nM; at C-Raf (Y340D/Y341D), 1.2 nM; at wild type B-Raf (setting [2]), 8.5 nM; against WT EGFR kinase domain it was 1.4 nM; against EGFR L858R kinase domain it was 0.39 nM; in assay [1], 6.6 nM.
